Results as given in BindingDB's records for patent US11299480 (University of Hawaii, 2022).

Molecular target: Signal transducer and activator of transcription 3 (Homo sapiens, UniProt P40763)
Experiment: In Vitro Assay
Method: Except where indicated, nuclear extracts were pre-incubated with compound for 30 min at room temperature prior to incubation with the radiolabeled probe for 30 min at 30° C. before subjecting to EMSA analysis. Where appropriate, bands corresponding to Stat3:DNA complexes were scanned and quantified for each concentration of compound using ImageJ and plotted as percent of control (DMSO) against concentration of compound, from which the IC50 values were derived.

Sequence of Signal transducer and activator of transcription 3 (P40763 whole entry): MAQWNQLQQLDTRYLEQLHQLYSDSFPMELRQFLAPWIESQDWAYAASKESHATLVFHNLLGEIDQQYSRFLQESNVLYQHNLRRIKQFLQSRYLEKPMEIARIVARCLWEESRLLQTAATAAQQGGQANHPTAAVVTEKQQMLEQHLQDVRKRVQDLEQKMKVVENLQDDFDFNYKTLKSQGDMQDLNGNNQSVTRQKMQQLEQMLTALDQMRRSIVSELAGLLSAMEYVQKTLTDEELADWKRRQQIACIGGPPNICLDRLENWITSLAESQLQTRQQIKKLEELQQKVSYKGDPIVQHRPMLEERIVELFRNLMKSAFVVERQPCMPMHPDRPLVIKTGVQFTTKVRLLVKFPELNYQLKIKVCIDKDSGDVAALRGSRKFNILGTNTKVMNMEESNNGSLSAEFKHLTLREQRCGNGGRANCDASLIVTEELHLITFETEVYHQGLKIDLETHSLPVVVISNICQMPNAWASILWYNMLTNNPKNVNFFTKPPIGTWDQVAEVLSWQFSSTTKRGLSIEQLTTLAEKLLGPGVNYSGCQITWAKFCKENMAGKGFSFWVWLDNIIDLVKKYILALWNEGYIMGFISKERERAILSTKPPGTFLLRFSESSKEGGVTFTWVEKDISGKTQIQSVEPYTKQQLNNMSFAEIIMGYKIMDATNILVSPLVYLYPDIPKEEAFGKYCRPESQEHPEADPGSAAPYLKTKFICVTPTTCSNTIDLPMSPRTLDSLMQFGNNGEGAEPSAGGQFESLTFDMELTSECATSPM

Compound: O=C(O)c1ccc(N(Cc2cnc(C3CCCCC3)cn2)C(=O)[C@H]2CCN2S(=O)(=O)c2c(F)c(F)c(F)c(Cl)c2F)cc1O [US11299480, Example 152]
- IC50: 0.422 µM
